Data: patent US12661398B2, “Combination of a PD-1 antagonist, a VEGFR/FGFR/RET tyrosine kinase inhibitor and a CBP/beta-catenin inhibitor for treating cancer” (Eisai R&D Management Co., Ltd., priority 2019, dated 2026)

System: mouse Renal cell carcinoma cell line RAG
Experiment: Subcutaneous (s.c.) RAG transplantation model, anti-tumor effect of triple combination (Example 1)
Type: in vivo
Conditions: for CR rate: 28 days of administration
Excerpt: An Eagle's minimal essential medium (E-MEM) containing 10% fetal bovine serum (FBS) and penicillin/streptomycin (100 unit/mL each) was used to culture a mouse Renal cell carcinoma cell line RAG (ATCC number: CCL-142). Logarithmic growing cells were collected from flasks using Trypsin-EDTA. The suspension of cells was centrifuged to remove the supernatant. Next, Hanks' Balanced Salt Solution (HBSS) was used to prepare a cell suspension having a concentration of 2.5×10^7 cells/mL. The cell suspension was subcutaneously transplanted at a dose of 0.1 mL on the right lateral side of the body of each of 7-week-old mice (BALB/cAnNCrlCrlj, female, Charles River Laboratories Japan Inc.). Eight (8) days after the transplantation, an electronic digital caliper (Digimatic™ Caliper; Mitutoyo Corporation) was used to measure the short and long diameters of a tumor of interest. The following equations were used to calculate the tumor volume TV and RTV. Tumor Volume TV (mm^3)=Long Diameter (mm)×Short Diameter (mm)×Short Diameter (mm)/2 EQ. 1: Relative Tumor Volume RTV=TV on day n/TV on day1 EQ. 2:
Based on the tumor volumes on the first day of administration, grouping was carried out such that the average values of the tumor volumes were almost the same. A 1 mg/ml solution of lenvatinib was prepared using 3 mM HCl and was orally administered at a dose of 0.2 mL/20 g mouse body weight once daily for 28 days. 0.2 mL of an administration sample containing 1.0 mg/mL of an anti-mouse-PD-1 antibody (Clone: RMP1-14, BioXCell, Catalog #: BE0146), which had been diluted with PBS, was intraperitoneally administered (at a dosage of 200 μg/mouse) twice a week a total of 8 times (day 1, day 4, day 8, day 11, day 15, day 18, day 22, and day 25, with the day of the grouping set to day 1). A 2.5 mg/ml solution of E7386 was prepared using 0.1 M HCl and was orally administered at a dose of 0.2 mL/20 g mouse body weight once daily for 28 days. To the control group, nothing was administered. Each group including 8 mice was used to conduct the experiment. Twice a week (day 1, day 4, day 8, day 11, day 15, day 18, day 22, day 25, and day 29), the respective tumor volumes (TV) were determined for the control group, the lenvatinib administration group, the anti-mouse-PD-1 antibody administration group, lenvatinib+anti-mouse-PD-1 antibody administration group, E7386+lenvatinib administration group and triple combination group. The values obtained by logarithmically transforming the tumor volumes were used to carry out statistical analysis by repeated measured Dunnet's multiple comparison. E7386 is (6S,9aS)-N-benzyl-8-({6-[3-(4-ethylpiperazin-1-yl)azetidin-1-yl]pyridin-2-yl}methyl)-6-(2-fluoro-4-hydroxybenzyl)-4,7-dioxo-2-(prop-2-en-1-yl)hexahydro-2H-pyrazino[2,1-c][1,2,4]triazine-1(6H)-carboxamide.

[1] = Day 1 (day of grouping, first administration), BALB/c mice

SMILES | CR rate (BALB/c mice) | tumor volume (TV) [1] [mm^3] | tumor volume (TV) (Day 4, BALB/c mice) [mm^3] | tumor volume (TV) (Day 8, BALB/c mice) [mm^3] | tumor volume (TV) (Day 11, BALB/c mice) [mm^3] | tumor volume (TV) (Day 15, BALB/c mice) [mm^3] | tumor volume (TV) (Day 18, BALB/c mice) [mm^3] | tumor volume (TV) (Day 22, BALB/c mice) [mm^3] | tumor volume (TV) (Day 25, BALB/c mice) [mm^3] | tumor volume (TV) (Day 29, BALB/c mice) [mm^3]
C=CCN1CC(=O)N2[C@@H](Cc3ccc(O)cc3F)C(=O)N(Cc3cccc(N4CC(N5CCN(CC)CC5)C4)n3)C[C@@H]2N1C(=O)NCc1ccccc1 [E7386, (6S,9aS)-N-benzyl-8-({6-[3-(4-ethylpiperazin-1-yl)azetidin-1-yl]pyridin-2-yl}methyl)-6-(2-fluoro-4-hydroxybenzyl)-4,7-dioxo-2-(prop-2-en-1-yl)hexahydro-2H-pyrazino[2,1-c][1,2,4]triazine-1(6H)-carboxamide] | 1 out of 8 mice | 62 | 93 | 148 | 210 | 301 | 408 | 588 | 723 | 923
COc1cc2nccc(Oc3ccc(NC(=O)NC4CC4)c(Cl)c3)c2cc1C(N)=O [Lenvatinib, 4-[3-chloro-4-(cyclopropylaminocarbonyl)aminophenoxy]-7-methoxy-6-quinolinecarboxamide] | 0 out of 8 mice | 62 | 82 | 102 | 134 | 152 | 175 | 162 | 166 | 151
